Results: ChEMBL document CHEMBL1201862, “PubChem BioAssay data set” (2004)
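48-hour exposure; five concentrations; linearly interpolated endpoints. GI50: concentration for 50% inhibition of growth.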 Calls of active or inactive are those of the source. Rule as the data show it: active = GI50 up to about 1.1 µM and inactive = higher.

Assays:
Test in all cases: NCI tumour cell line growth inhibition, 48 h
RXF 631 = system: RXF 631
UACC-257 = system: UACC-257
DLD-1 = system: DLD-1
OVCAR-5 = system: OVCAR-5
DMS-273 = system: DMS-273
KM-20L2 = system: KM-20L2
SK-MEL-2 = system: SK-MEL-2
TK-10 = system: TK-10
U-251 = system: U-251
LOX IMVI = system: LOX IMVI
DMS-114 = system: DMS-114
HCC 2998 = system: HCC 2998
K562 = system: K562
LXFL 529 = system: LXFL 529
KM12 = system: KM12
OVCAR-8 = system: OVCAR-8
SF-268 = system: SF-268
SF-295 = system: SF-295
SNB-19 = system: SNB-19
SK-MEL-28 = system: SK-MEL-28
A498 = system: A498
M14 = system: M14
MOLT-4 = system: MOLT-4
IGROV-1 = system: IGROV-1
SK-OV-3 = system: SK-OV-3
UO-31 = system: UO-31
XF498 = system: XF498
A549 = system: A549
OVCAR-3 = system: OVCAR-3
HOP-62 = system: HOP-62
SW-620 = system: SW-620
SR = system: SR
UACC-62 = system: UACC-62
HL-60 = system: HL-60
M19-MEL = system: M19-MEL
EKVX = system: EKVX
SNB-75 = system: SNB-75
NCI-H23 = system: NCI-H23
SF-539 = system: SF-539
CAKI-1 = system: CAKI-1
786-0 = system: 786-0
HT-29 = system: HT-29
NCI-H460 = system: NCI-H460
SK-MEL-5 = system: SK-MEL-5
HCT-116 = system: HCT-116
SN12C = system: SN12C
SNB-78 = system: SNB-78
RPMI-8226 = system: RPMI-8226
OVCAR-4 = system: OVCAR-4
HCT-15 = system: HCT-15
COLO 205 = system: COLO 205
NCI-H226 = system: NCI-H226
ACHN = system: ACHN
NCI-H522 = system: NCI-H522
Malme-3M = system: Malme-3M
HOP-92 = system: HOP-92
CCRF-CEM = system: CCRF-CEM
HOP-18 = system: HOP-18
RXF 393 = system: RXF 393

Measured: GI50

O=C(CC(=O)N1N=C(c2ccccc2)C(/N=N/c2ccccc2Cl)C1=O)Nc1ccccc1Cl (centres undefined)
inactive: RXF 631 48.5 µM | UACC-257 48.4 µM | DLD-1 23 µM | OVCAR-5 > 100 µM | DMS-273 37.5 µM | KM-20L2 46.3 µM | SK-MEL-2 43.5 µM | TK-10 15.4 µM | U-251 32.1 µM | LOX IMVI 31.3 µM | DMS-114 54.1 µM | HCC 2998 > 100 µM | K562 31.1 µM | LXFL 529 26.2 µM | KM12 14.1 µM | OVCAR-8 31.7 µM | SF-268 31.5 µM | SF-295 27.4 µM | SNB-19 40.4 µM | SK-MEL-28 44.3 µM | A498 > 10 µM | M14 37.9 µM | MOLT-4 28.6 µM | IGROV-1 63.1 µM | SK-OV-3 28.6 µM | UO-31 57.9 µM | XF498 20.7 µM | A549 21.4 µM | OVCAR-3 28.1 µM | HOP-62 33 µM | SW-620 29.9 µM | SR 19.3 µM | UACC-62 37.7 µM | HL-60 13 µM | M19-MEL 32.2 µM | EKVX 33.1 µM | SNB-75 21.1 µM | NCI-H23 39.8 µM | SF-539 29.9 µM | CAKI-1 30.8 µM | 786-0 20.8 µM | HT-29 19.9 µM | NCI-H460 56.2 µM | SK-MEL-5 17.1 µM | HCT-116 25.9 µM | SN12C 58.5 µM | SNB-78 40.9 µM | RPMI-8226 17.3 µM | OVCAR-4 20.7 µM | COLO 205 31.6 µM | NCI-H226 42.7 µM | ACHN 20.2 µM | NCI-H522 28.9 µM
40.1 µM: HCT-15

C=C1C=CC2(Br)OC3CC(C)(Cl)C(Br)CC13C2(C)C (centres undefined)
inactive: RXF 631 23 µM | UACC-257 18.5 µM | Malme-3M 18.2 µM | DLD-1 31.6 µM | OVCAR-5 17.1 µM | DMS-273 35.8 µM | KM-20L2 21.9 µM | SK-MEL-2 17.6 µM | TK-10 37.2 µM | U-251 18.8 µM | LOX IMVI 18.9 µM | DMS-114 17.2 µM | HCC 2998 20.4 µM | K562 17.9 µM | LXFL 529 22.5 µM | KM12 24.4 µM | OVCAR-8 30.7 µM | SF-268 30.1 µM | SF-295 20.4 µM | SNB-19 27 µM | SK-MEL-28 20 µM | A498 22.3 µM | M14 21.2 µM | MOLT-4 16.9 µM | IGROV-1 28.9 µM | SK-OV-3 30.5 µM | UO-31 20.7 µM | XF498 13.3 µM | A549 26.4 µM | HOP-92 21.2 µM | OVCAR-3 20 µM | HOP-62 23.1 µM | SW-620 24.2 µM | CCRF-CEM 25.1 µM | UACC-62 17.8 µM | HL-60 15.2 µM | M19-MEL 21.5 µM | EKVX 24.5 µM | SNB-75 25.2 µM | NCI-H23 19.1 µM | SF-539 18.5 µM | CAKI-1 29.5 µM | 786-0 33.8 µM | HT-29 18.1 µM | NCI-H460 22 µM | SK-MEL-5 17.3 µM | HCT-116 15 µM | SN12C 18.9 µM | SNB-78 22.4 µM | RPMI-8226 23.2 µM | OVCAR-4 30.1 µM | COLO 205 16.1 µM | NCI-H226 19.1 µM | ACHN 23.6 µM | NCI-H522 15.4 µM
23 µM: HCT-15

Cc1ccc([N+](=O)[O-])cc1NC(=O)C(=O)Cc1nc2ccc(C(=O)c3ccccc3)cc2nc1O
> 100 µM: HCT-15
inactive: RXF 631 > 100 µM | UACC-257 > 100 µM | Malme-3M > 100 µM | DLD-1 > 100 µM | DMS-273 > 100 µM | KM-20L2 > 100 µM | TK-10 > 100 µM | LOX IMVI > 100 µM | DMS-114 90.6 µM | HCC 2998 > 100 µM | LXFL 529 > 100 µM | KM12 93.3 µM | OVCAR-8 > 100 µM | SF-295 > 100 µM | SNB-19 > 100 µM | SK-MEL-28 > 100 µM | M14 > 100 µM | MOLT-4 > 100 µM | IGROV-1 > 100 µM | SK-OV-3 > 100 µM | UO-31 > 100 µM | XF498 > 100 µM | A549 > 100 µM | HOP-18 > 100 µM | HOP-92 42.2 µM | OVCAR-3 > 100 µM | HOP-62 > 100 µM | SW-620 > 100 µM | SR 60 µM | RXF 393 > 100 µM | CCRF-CEM > 100 µM | UACC-62 > 100 µM | HL-60 > 100 µM | M19-MEL > 100 µM | EKVX > 100 µM | SNB-75 56.5 µM | NCI-H23 > 100 µM | SF-539 > 100 µM | CAKI-1 > 100 µM | 786-0 > 100 µM | HT-29 > 100 µM | NCI-H460 > 100 µM | SK-MEL-5 > 100 µM | HCT-116 > 100 µM | SN12C > 100 µM | OVCAR-4 > 100 µM | COLO 205 > 100 µM | NCI-H226 > 100 µM | ACHN > 100 µM | NCI-H522 > 100 µM

O=C(c1ccccc1)C(c1ccccc1)C1(O)C(=O)Nc2ccc([N+](=O)[O-])cc21 (centres undefined)
> 100 µM: HCT-15
inactive: RXF 631 > 100 µM | Malme-3M > 100 µM | DLD-1 > 100 µM | OVCAR-5 > 100 µM | KM-20L2 > 100 µM | SK-MEL-2 > 100 µM | TK-10 > 100 µM | U-251 > 100 µM | LOX IMVI 69.7 µM | DMS-114 19.8 µM | HCC 2998 > 100 µM | K562 42.7 µM | LXFL 529 32.9 µM | OVCAR-8 > 100 µM | SF-268 > 100 µM | SNB-19 > 100 µM | SK-MEL-28 > 100 µM | A498 > 100 µM | M14 > 100 µM | MOLT-4 83.2 µM | IGROV-1 > 100 µM | SK-OV-3 19.4 µM | UO-31 47.6 µM | XF498 > 100 µM | A549 > 100 µM | HOP-92 31.8 µM | HOP-62 > 100 µM | SW-620 > 100 µM | RXF 393 > 100 µM | CCRF-CEM 41.9 µM | UACC-62 58.1 µM | HL-60 42.9 µM | M19-MEL 26.9 µM | EKVX > 100 µM | SNB-75 61 µM | NCI-H23 92 µM | SF-539 > 100 µM | CAKI-1 > 100 µM | 786-0 > 100 µM | NCI-H460 > 100 µM | SK-MEL-5 24 µM | HCT-116 > 100 µM | SN12C 62.4 µM | SNB-78 > 100 µM | RPMI-8226 37.7 µM | OVCAR-4 64.6 µM | COLO 205 26.2 µM | NCI-H226 > 100 µM | ACHN 33 µM | NCI-H522 74 µM

COc1ccc(-c2c(N)[n+]([O-])c3ccccc3[n+]2[O-])cc1OC
inactive: RXF 631 86.3 µM | UACC-257 > 100 µM | Malme-3M > 100 µM | DLD-1 > 100 µM | OVCAR-5 > 100 µM | DMS-273 > 100 µM | KM-20L2 > 100 µM | SK-MEL-2 > 100 µM | U-251 > 100 µM | DMS-114 > 100 µM | K562 > 100 µM | LXFL 529 > 100 µM | KM12 > 100 µM | OVCAR-8 > 100 µM | SF-268 > 100 µM | SF-295 > 100 µM | SNB-19 > 100 µM | SK-MEL-28 > 100 µM | A498 > 100 µM | M14 > 100 µM | MOLT-4 > 100 µM | IGROV-1 > 100 µM | SK-OV-3 > 100 µM | UO-31 > 100 µM | A549 > 100 µM | HOP-18 > 100 µM | HOP-92 > 100 µM | OVCAR-3 > 100 µM | HOP-62 > 100 µM | SW-620 > 100 µM | SR > 100 µM | HL-60 > 100 µM | M19-MEL > 100 µM | EKVX > 100 µM | SNB-75 65.9 µM | NCI-H23 > 100 µM | SF-539 > 100 µM | CAKI-1 > 100 µM | 786-0 > 100 µM | HT-29 > 100 µM | NCI-H460 > 100 µM | SK-MEL-5 > 100 µM | HCT-116 > 100 µM | SN12C > 100 µM | SNB-78 > 100 µM | RPMI-8226 > 100 µM | OVCAR-4 > 100 µM | COLO 205 > 100 µM | NCI-H226 > 100 µM | ACHN > 100 µM | NCI-H522 > 100 µM
> 100 µM: HCT-15
